From PMC11478334, “Quaternized Curcumin Derivative—Synthesis, Physicochemical Characteristics, and Photocytotoxicity, Including Antibacterial Activity after Irradiation with Blue Light” (Molecules, 2024)
Where “and” joins values, the source holds several entries; their conditions need not be identical. Equal values may be shown once. Read-outs that look alike come from different tables or passages of the source.

Columns and labels:
[1] = system: Pseudomonas aeruginosa NCTC 6749; assay: In vitro photodynamic inactivation of planktonic cells, 470 nm LED; format: cell-based
From the text: (§1) The second experiment was designed to determine the time and concentration required to achieve the biological effect observed in the first experiment and to extend the study to other strains (Figure 12). Apart from S. aureus and E. coli, the Gram-positive Streptococcus pyogenes ATCC 19615, which is the etiologic agent of tonsillitis, and the Gram-negative Pseudomonas aeruginosa NCTC 6749, which is a major threat to hospitalized and immunocompromised patients due to its high antibiotic resistance, were used. The observed effect was strictly concentration-dependent (Table 6). According to the results, Gram-positive bacteria appear to be the most susceptible to the applied photocytotoxicity study. […] For S. pyogenes, the results were even more pronounced, as the complete eradication under the influence of compound 3 at a concentration of 10 µM occurred after only 5 min of irradiation, while at a concentration of 1 µM, complete eradication occurred after 15 min of irradiation. Interesting results were also obtained for Gram-negative bacteria. […] A high level of eradication of P. aeruginosa in the presence of compound 3 (10 µM) was observed after only 5 min of irradiation (log reduction: 4.29). […] Reductions in microbial survival were still observed with a decrease in compound concentration, but complete eradication was not achieved within the irradiation time.
(§2) The microorganisms used in the study were (i) standard strains of bacteria: Staphylococcus aureus NCTC 4163, Escherichia coli ATCC 25922, Pseudomonas aeruginosa NCTC 6749, and Streptococcus […] ATCC 19615, and (ii) fungi: Candida albicans ATCC 10231. The standard strains were obtained from the National Collection of Type Cultures (NCTC, Salisbury, UK) and the American Type Culture Collection (ATCC, Manassas, VA, USA). Bacterial and yeast strains were stored in Microbank cryogenic vials (Pro-Lab Diagnostics, Richmond Hill, ON, Canada) at −70 °C ± 10 °C. The bacteria were cultured aerobically in brain–heart infusion (BHI) broth (OXOID, Basingstoke, UK) at 36 °C ± 1 °C for 20 h. C. albicans cultures were grown in Sabouraud dextrose broth (SDB, Merck, Steinheim, Germany) at 36 °C for 20 h.
The organisms were harvested by centrifugation (3000× g for 15 min) and resuspended in 1.5 mL of 10 mM PBS, pH, 7.0 (Sigma-Aldrich, St. Louis, MO, USA). The cells were then diluted 1/100 in PBS to a final concentration of about 10^7 colony-forming units (CFUs)/mL. Aliquots (100 μL) of a standardized microbial suspension were placed in the wells of microtiter plates, and an equal volume of a solution of the tested compound was added to give final concentrations of 1 × 10^−5 (10 µM) and 1 × 10^−6 M (1 µM) (groups P+). Negative control wells contained the bacterial or yeast suspension and PBS without the photosensitizer (groups P−). All the samples were incubated in the dark for 20 min and irradiated by the LED panel at a distance of 10 mm for a specific period, depending on the experiment (groups L+). To evaluate the antimicrobial activity of the tested compounds, duplicate experimental samples were prepared but not irradiated (groups L−). Viable microorganisms were measured by counting the number of colony-forming units (CFUs) after appropriate serial dilution and culture on tryptic soy agar plates (TSA, OXOID, Basingstoke, UK) or Columbia Blood Agar with Sheep Blood (CAS, OXOID, Basingstoke, UK) for bacteria and Sabouraud dextrose agar (SDA, Merck, Steinheim, Germany) for fungi, following incubation at 36 °C ± 1 °C for 24–72 h. The number of surviving organisms and the log10 reduction in microbial cells for each sample were calculated using a formula available in the literature.
(§3) Lamp type—LED λmax~470 nm (LIU470A LED Array Light Source; Thorlabs Inc., Bergkirchen, Germany); irradiance—16.67 mW/cm^2 (measured with PM16-130 Power Meter, Thorlabs Inc., Bergkirchen, Germany, and Optel Opole Sp. z o.o., Opole, Poland).

[2] = system: Escherichia coli ATCC 25922; assay: as above; format: cell-based
Description: (§4) In the first experiment, the main goal was to determine whether the tested compounds were antimicrobially active with or without light. Two compounds (2 and 3) were tested in the visible range, and a 470 nm LED lamp was applied (Figure 11). Due to poor solubility and low absorption, curcumin was not included in the tests. A screening study was carried out on three strains: Gram-positive bacteria—Staphylococcus aureus NCTC 4163, Gram-negative bacteria—Escherichia coli ATCC 25922, and the yeast Candida albicans ATCC 10231. In the study, the irradiation lasted 30 min, and the lamp was placed 10 mm above the microtiter plate containing the bacterial suspensions and tested compounds at concentrations of 10 μM. The preincubation time (PIT) lasted 20 min, and the LED lamp emitted visible light (λmax 470 nm) with an irradiance of 16.67 mW/cm^2, which corresponds to a light dose (fluence) of 30.01 J/cm^2 after 30 min of exposure. The light exposure conditions (lamp distance, lamp power, and lamp type) were the same in all subsequent experiments. The light dose depended on the irradiation time. […] Compound 3 presented activity against both G+ (S. aureus) and G− (E. coli) bacteria. The light-induced antimicrobial activity against S. aureus and E.coli exceeded log reductions of 5.54 and 4.46, respectively. At these concentrations, not even a single colony was observed on the plates, as complete eradication occurred.
as §1, §2
(§5) The organisms were harvested by centrifugation (3000× g for 15 min) and resuspended in 1.5 mL of 10 mM PBS, pH, 7.0 (Sigma-Aldrich, St. Louis, MO, USA). The cells were then diluted 1/100 in PBS to a final concentration of about 10^7 colony-forming units (CFUs)/mL. […]

[3] = system: Staphylococcus aureus NCTC 4163; assay: as above; format: cell-based
Description: as §4, §1, §2, §5

[4] = system: Candida albicans ATCC 10231; assay: as above; format: cell-based; conditions: 10 µM
Description: as §4
The microorganisms used in the study were (i) standard strains of bacteria: Staphylococcus aureus NCTC 4163, Escherichia coli ATCC 25922, Pseudomonas aeruginosa NCTC 6749, and Streptococcus […] ATCC 19615, and (ii) fungi: Candida albicans ATCC 10231. The standard strains were obtained from the National Collection of Type Cultures (NCTC, Salisbury, UK) and the American Type Culture Collection (ATCC, Manassas, VA, USA). […]
The organisms were harvested by centrifugation (3000× g for 15 min) and resuspended in 1.5 mL of 10 mM PBS, pH, 7.0 (Sigma-Aldrich, St. Louis, MO, USA). […] Viable microorganisms were measured by counting the number of colony-forming units (CFUs) after appropriate serial dilution and culture on tryptic soy agar plates (TSA, OXOID, Basingstoke, UK) or Columbia Blood Agar with Sheep Blood (CAS, OXOID, Basingstoke, UK) for bacteria and Sabouraud dextrose agar (SDA, Merck, Steinheim, Germany) for fungi, following incubation at 36 °C ± 1 °C for 24–72 h. The number of surviving organisms and the log10 reduction in microbial cells for each sample were calculated using a formula available in the literature.
as §3

MRC-5 fibroblasts = system: MRC-5 fibroblasts; set-up: method as in Lazewski et al. 32; conditions: ref Lazewski et al. 32, cited from earlier work
C. albicans = system: C. albicans; set-up: method as in PMID 22934533; conditions: 80 µM curcumin, 37.5 J/cm^2; mouse model of oral candidiasis; cited from earlier work
[5] = 1 µM, 15 min irradiation 470 nm
[6] = 1 µM, 25 min irradiation 470 nm
[7] = 10 µM, 5 min irradiation 470 nm (5 J/cm^2)
[8] = 10 µM, 25 min irradiation 470 nm (25 J/cm^2)
[9] = 10 µM, 15 min irradiation 470 nm (15 J/cm^2)
[10] = L+P+, 10 µM, 470 nm, 30 min, 30.01 J/cm^2
[11] = L+P+, 470 nm, 30 min, 30.01 J/cm^2

Q: For C[N+]1(CCOc2ccc(C=CC3=CC(C=Cc4ccc(OCC[N+]5(C)CCOCC5)cc4)=[O+][B-](F)(F)O3)cc2)CCOCC1 [Compound 3], which “Log Red.” value ([1]; 1 µM, 5 min irradiation 470 nm) is on record?
A: 0.86 log

Q: And the “Log Red.” value [1, 5]?
A: 2.32 log

Q: And the “Log Red.” value [1, 6]?
A: 2.83 log

Q: And the “Log Red.” value ([1]; 1 µM, 30 min irradiation 470 nm (30 J/cm^2))?
A: 3.32 log

Q: And the “Log Red.” value [1, 7]?
A: 4.29 log

Q: And the “Log Red.” value ([1]; 10 µM, 15 min irradiation 470 nm)?
A: 4.75 log

Q: And the “Log Red.” value [1, 8]?
A: >4.85 log

Q: What about the “Log Red.” value ([2]; 1 µM, 5 min irradiation 470 nm) of the same compound?
A: 0.83 log

Q: What about the “biological activity after irradiation” value ([2]; 1 µM, 470 nm LED) of the same compound?
A: no biological activity

Q: And the “Log Red.” value [2, 5]?
A: 1.57 log

Q: And the “Log Red.” value [2, 6]?
A: 1.82 log

Q: What about the “Log Red.” value ([2]; 10 µM, 5 min irradiation 470 nm) of the same compound?
A: 1.15 log

Q: What about the “Log Red.” value [2, 9] of the same compound?
A: 3.08 log

Q: And the “Log Red.” value [2, 8]?
A: 4.53 log

Q: And the Log10 reduction [2, 10]?
A: >4.46 log

Q: What about the Log10 reduction ([2]; L−P+ (no light), 10 µM) of the same compound?
A: 0.58 log

Q: What about the “Log Red.” value ([3]; 1 µM, 5 min irradiation 470 nm) of the same compound?
A: −0.01 log

Q: What about the “Log Red.” value ([3]; 1 µM, 10 min irradiation 470 nm) of the same compound?
A: 0.77 log

Q: What about the “Log Red.” value [3, 5] of the same compound?
A: 1.01 log

Q: And the “Log Red.” value ([3]; 1 µM, 20 min irradiation 470 nm)?
A: 1.42 log

Q: And the “Log Red.” value [3, 7]?
A: 3.37 log

Q: What about the “irradiation time to complete eradication” value ([3]; 10 µM, 470 nm LED) of the same compound?
A: 15 min

Q: What about the “Log Red.” value ([3]; 10 µM, 10 min irradiation 470 nm) of the same compound?
A: 4.09 log

Q: And the “Log Red.” value [3, 9]?
A: >5.40 log and >5.4 log

Q: What about the Log10 reduction [3, 10] of the same compound?
A: >5.54 log

Q: What about the Log10 reduction ([3]; L−P+ (no light), 10 µM) of the same compound?
A: −0.01 log

Q: And the Log10 reduction [4, 11]?
A: −0.04 log

Q: And the Log10 reduction ([4]; L−P+ (no light))?
A: −0.09 log

Q: Which IC50 (MRC-5 fibroblasts; after 24 h) does the source give for Curcumin [reference compound] here?
A: 70.4 ± 12.5 µM

Q: What about the IC50 (MRC-5 fibroblasts; after 48 h) of the same compound?
A: 45.3 ± 3.18 µM

Q: What about the “reduction in the survival of C. albicans” value (C. albicans) of the same compound?
A: 4 log

Q: Which results are given for F[B-]1(F)OC(/C=C/c2ccc(OCCN3CCOCC3)cc2)=CC(/C=C/c2ccc(OCCN3CCOCC3)cc2)=[O+]1 [Compound 2]?
A: Log10 reduction ([2]; L−P+ (no light), 10 µM): 0.52 log; Log10 reduction [3, 10]: 2.13 log; Log10 reduction ([3]; L−P+ (no light), 10 µM): 0.05 log; Log10 reduction [4, 11]: 0.01 log; Log10 reduction ([4]; L−P+ (no light)): 0.04 log
